Assay results reported in paper PMC7265341, “Quantifying CDK inhibitor selectivity in live cells” (Nature Communications, 2020).
Like-named read-outs stand apart in the source and are kept apart here.

How the values were obtained:
CDK18/Cyclin Y = CDK18/Cyclin Y (Homo sapiens, UniProt Q07002); experiment: NanoBRET live-cell target engagement, CDK18-NanoLuc/Cyclin Y in HEK-293; assay type: binding; conditions: read-out: Inhibition at 10µM (%), CDK18/Y
CDK5/CDK5R1 = CDK5/CDK5R1 (Homo sapiens, UniProt Q00535); experiment: NanoBRET live-cell target engagement, CDK5-NanoLuc/CDK5R1 in HEK-293; assay type: binding; conditions: CDK5/CDK5R1, read-out: Inhibition at 10µM (%)
CDK17/Cyclin Y = CDK17/Cyclin Y (Homo sapiens, UniProt Q00537); experiment: NanoBRET live-cell target engagement, CDK17-NanoLuc/Cyclin Y in HEK-293; assay type: binding; conditions: read-out: Inhibition at 10µM (%), CDK17/Y
CDK2/Cyclin E1 = CDK2/Cyclin E1 (Homo sapiens, UniProt P24941); experiment: NanoBRET live-cell target engagement, CDK2-NanoLuc/Cyclin E1 in HEK-293; assay type: binding; conditions: CDK2/E1, read-out: Inhibition at 10µM (%)
CDK14/Cyclin Y = CDK14/Cyclin Y (Homo sapiens, UniProt O94921); experiment: NanoBRET live-cell target engagement, CDK14-NanoLuc/Cyclin Y in HEK-293; assay type: binding; conditions: read-out: Inhibition at 10µM (%), CDK14/Y
CDK13/Cyclin K = CDK13/Cyclin K (Homo sapiens, UniProt Q14004); experiment: NanoBRET live-cell target engagement, CDK13-NanoLuc/Cyclin K in HEK-293; assay type: binding; conditions: CDK13/K, read-out: Inhibition at 10µM (%)
CDK3/Cyclin E1 = CDK3/Cyclin E1 (Homo sapiens, UniProt Q00526); experiment: NanoBRET live-cell target engagement, CDK3-NanoLuc/Cyclin E1 in HEK-293; assay type: binding; conditions: CDK3/E1, read-out: Inhibition at 10µM (%)
CDK12/Cyclin K = CDK12/Cyclin K (Homo sapiens, UniProt Q9NYV4); experiment: NanoBRET live-cell target engagement, CDK12-NanoLuc/Cyclin K in HEK-293; assay type: binding; conditions: read-out: Inhibition at 10µM (%), CDK12/K
CDK8/Cyclin C = CDK8/Cyclin C (Homo sapiens, UniProt P49336); experiment: NanoBRET live-cell target engagement, NanoLuc-CDK8/Cyclin C in HEK-293; assay type: binding; conditions: CDK8/C, read-out: Inhibition at 10µM (%)
CDK15/Cyclin Y = CDK15/Cyclin Y (Homo sapiens, UniProt Q96Q40); experiment: NanoBRET live-cell target engagement, NanoLuc-CDK15/Cyclin Y in HEK-293; assay type: binding; conditions: read-out: Inhibition at 10µM (%), CDK15/Y
CDK16/Cyclin Y = CDK16/Cyclin Y (Homo sapiens, UniProt Q00536); experiment: NanoBRET live-cell target engagement, CDK16-NanoLuc/Cyclin Y in HEK-293; assay type: binding; conditions: read-out: Inhibition at 10µM (%), CDK16/Y
CDK1/Cyclin E1 = CDK1/Cyclin E1 (Homo sapiens, UniProt P06493); experiment: NanoBRET live-cell target engagement, CDK1-NanoLuc/Cyclin E1 in HEK-293; assay type: binding; conditions: CDK1/E1, read-out: Inhibition at 10µM (%)
CDK6/Cyclin D1 = CDK6/Cyclin D1 (Homo sapiens, UniProt Q00534); experiment: NanoBRET live-cell target engagement, NanoLuc-CDK6/Cyclin D1 in HEK-293; assay type: binding; conditions: CDK6/D1, read-out: Inhibition at 10µM (%)
CDK20/Cyclin H = CDK20/Cyclin H (Homo sapiens, UniProt Q8IZL9); experiment: NanoBRET live-cell target engagement, NanoLuc-CDK20/Cyclin H in HEK-293; assay type: binding; conditions: read-out: Inhibition at 10µM (%), CDK20/H
CDK19/Cyclin C = CDK19/Cyclin C (Homo sapiens, UniProt Q9BWU1); experiment: NanoBRET live-cell target engagement, NanoLuc-CDK19/Cyclin C in HEK-293; conditions: read-out: Inhibition at 10µM (%), CDK19/C
CDK4/Cyclin D1 = CDK4/Cyclin D1 (Homo sapiens, UniProt P11802); experiment: NanoBRET live-cell target engagement, NanoLuc-CDK4/Cyclin D1 in HEK-293; assay type: binding; conditions: CDK4/D1, read-out: Inhibition at 10µM (%)
CDK10/Cyclin L2 = CDK10/Cyclin L2 (Homo sapiens, UniProt Q15131); experiment: NanoBRET live-cell target engagement, CDK10-NanoLuc/Cyclin L2 in HEK-293; conditions: read-out: Inhibition at 10µM (%), CDK10/L2
CDK7 = CDK7 (Homo sapiens, UniProt P50613); experiment: NanoBRET live-cell target engagement, NanoLuc-CDK7 in HEK-293; assay type: binding; conditions: CDK7, read-out: Inhibition at 10µM (%)
CDK9/Cyclin K = CDK9/Cyclin K (Homo sapiens, UniProt P50750); experiment: NanoBRET live-cell target engagement, NanoLuc-CDK9/Cyclin K in HEK-293; assay type: binding; conditions: CDK9/K, read-out: Inhibition at 10µM (%)
CDK11B/Cyclin L2 = CDK11B/Cyclin L2 (Homo sapiens, UniProt P21127); experiment: NanoBRET live-cell target engagement, CDK11B-NanoLuc/Cyclin L2 in HEK-293; assay type: binding; conditions: read-out: Inhibition at 10µM (%), CDK11b/L2
Chain of CDK11B/Cyclin L2 (P21127 1-782 isoform P21127-2): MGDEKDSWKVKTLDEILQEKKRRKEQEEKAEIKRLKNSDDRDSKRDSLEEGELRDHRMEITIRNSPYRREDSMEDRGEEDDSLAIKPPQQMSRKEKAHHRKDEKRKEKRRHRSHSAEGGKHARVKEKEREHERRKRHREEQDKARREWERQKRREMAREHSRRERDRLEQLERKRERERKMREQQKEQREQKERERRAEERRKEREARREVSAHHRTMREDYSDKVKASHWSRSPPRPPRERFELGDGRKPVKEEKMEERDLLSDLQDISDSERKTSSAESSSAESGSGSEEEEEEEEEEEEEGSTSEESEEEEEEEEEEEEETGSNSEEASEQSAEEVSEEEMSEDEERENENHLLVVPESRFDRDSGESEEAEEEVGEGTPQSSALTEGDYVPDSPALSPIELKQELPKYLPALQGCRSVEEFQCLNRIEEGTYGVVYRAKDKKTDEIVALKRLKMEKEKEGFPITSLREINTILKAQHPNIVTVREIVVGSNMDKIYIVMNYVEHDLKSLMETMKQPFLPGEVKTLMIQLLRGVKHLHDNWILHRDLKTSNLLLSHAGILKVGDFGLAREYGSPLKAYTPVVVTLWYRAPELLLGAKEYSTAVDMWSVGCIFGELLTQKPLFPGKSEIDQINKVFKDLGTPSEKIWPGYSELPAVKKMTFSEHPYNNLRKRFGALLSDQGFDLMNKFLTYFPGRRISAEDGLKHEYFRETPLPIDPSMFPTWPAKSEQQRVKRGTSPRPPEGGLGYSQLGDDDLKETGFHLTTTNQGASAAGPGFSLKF

Chain of CDK8/Cyclin C (P49336 whole entry): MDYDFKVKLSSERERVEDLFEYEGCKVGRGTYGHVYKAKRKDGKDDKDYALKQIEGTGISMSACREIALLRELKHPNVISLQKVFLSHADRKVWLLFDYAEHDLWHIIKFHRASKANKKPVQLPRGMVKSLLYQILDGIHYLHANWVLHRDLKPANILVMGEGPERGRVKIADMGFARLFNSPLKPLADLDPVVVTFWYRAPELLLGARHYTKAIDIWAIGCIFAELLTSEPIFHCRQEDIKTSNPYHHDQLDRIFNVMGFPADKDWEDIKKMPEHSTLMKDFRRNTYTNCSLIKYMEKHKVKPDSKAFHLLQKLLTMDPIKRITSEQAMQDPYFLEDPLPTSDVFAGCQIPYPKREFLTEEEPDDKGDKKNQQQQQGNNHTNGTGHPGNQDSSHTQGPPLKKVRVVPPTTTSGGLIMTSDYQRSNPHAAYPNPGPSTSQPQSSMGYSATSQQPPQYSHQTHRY
Chain of CDK8/Cyclin C (P24863 whole entry partner): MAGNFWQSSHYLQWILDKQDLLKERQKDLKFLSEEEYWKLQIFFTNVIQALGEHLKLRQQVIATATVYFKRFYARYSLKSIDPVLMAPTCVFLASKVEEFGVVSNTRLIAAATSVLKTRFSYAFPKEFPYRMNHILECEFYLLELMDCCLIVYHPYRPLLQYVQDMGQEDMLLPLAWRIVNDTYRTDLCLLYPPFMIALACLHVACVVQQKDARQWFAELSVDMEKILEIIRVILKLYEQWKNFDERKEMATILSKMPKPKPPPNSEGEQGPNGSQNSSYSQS
Chain of CDK15/Cyclin Y (Q96Q40 whole entry): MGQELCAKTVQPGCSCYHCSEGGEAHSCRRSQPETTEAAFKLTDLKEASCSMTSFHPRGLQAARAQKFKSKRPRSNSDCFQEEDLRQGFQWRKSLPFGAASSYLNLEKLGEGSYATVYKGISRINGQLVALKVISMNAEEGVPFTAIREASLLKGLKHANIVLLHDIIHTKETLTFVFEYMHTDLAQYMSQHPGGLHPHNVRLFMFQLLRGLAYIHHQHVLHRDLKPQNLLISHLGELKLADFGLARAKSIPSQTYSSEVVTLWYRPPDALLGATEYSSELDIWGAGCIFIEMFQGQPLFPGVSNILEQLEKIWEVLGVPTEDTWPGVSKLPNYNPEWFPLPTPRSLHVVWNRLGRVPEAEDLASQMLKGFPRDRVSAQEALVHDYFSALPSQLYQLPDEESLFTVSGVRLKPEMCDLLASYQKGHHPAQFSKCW
Chain of CDK15/Cyclin Y (Q8ND76 whole entry partner): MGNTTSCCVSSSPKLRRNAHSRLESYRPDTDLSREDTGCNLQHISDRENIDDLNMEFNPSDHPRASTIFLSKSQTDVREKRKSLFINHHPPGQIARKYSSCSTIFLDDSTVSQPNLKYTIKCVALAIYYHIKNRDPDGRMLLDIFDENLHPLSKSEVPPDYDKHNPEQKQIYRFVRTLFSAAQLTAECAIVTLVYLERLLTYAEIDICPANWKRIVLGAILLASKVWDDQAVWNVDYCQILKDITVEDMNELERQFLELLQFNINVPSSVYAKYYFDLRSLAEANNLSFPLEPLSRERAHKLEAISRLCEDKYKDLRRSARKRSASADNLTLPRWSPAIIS
Chain of CDK1/Cyclin E1 (P06493 whole entry): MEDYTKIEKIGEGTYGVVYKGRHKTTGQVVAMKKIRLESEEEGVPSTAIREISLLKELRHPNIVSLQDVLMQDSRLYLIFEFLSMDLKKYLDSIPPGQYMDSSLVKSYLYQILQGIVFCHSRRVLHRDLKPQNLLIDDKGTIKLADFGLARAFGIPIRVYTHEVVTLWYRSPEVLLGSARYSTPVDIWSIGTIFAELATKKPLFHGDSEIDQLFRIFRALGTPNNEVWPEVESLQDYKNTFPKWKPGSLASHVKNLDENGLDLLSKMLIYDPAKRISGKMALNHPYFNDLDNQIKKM
Chain of CDK1/Cyclin E1 (P24864 whole entry partner): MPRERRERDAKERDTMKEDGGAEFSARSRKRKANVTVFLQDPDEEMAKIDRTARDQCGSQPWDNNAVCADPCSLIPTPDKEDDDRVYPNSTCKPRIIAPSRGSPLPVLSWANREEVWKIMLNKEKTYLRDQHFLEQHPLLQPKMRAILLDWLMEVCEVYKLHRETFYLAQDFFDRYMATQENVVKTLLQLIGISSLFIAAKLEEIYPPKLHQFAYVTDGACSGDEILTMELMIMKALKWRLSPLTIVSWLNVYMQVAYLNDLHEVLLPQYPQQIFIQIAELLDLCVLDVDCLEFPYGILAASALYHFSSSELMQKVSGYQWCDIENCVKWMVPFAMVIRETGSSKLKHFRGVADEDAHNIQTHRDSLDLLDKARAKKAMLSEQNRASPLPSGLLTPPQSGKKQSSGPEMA
Chain of CDK4/Cyclin D1 (P11802 whole entry): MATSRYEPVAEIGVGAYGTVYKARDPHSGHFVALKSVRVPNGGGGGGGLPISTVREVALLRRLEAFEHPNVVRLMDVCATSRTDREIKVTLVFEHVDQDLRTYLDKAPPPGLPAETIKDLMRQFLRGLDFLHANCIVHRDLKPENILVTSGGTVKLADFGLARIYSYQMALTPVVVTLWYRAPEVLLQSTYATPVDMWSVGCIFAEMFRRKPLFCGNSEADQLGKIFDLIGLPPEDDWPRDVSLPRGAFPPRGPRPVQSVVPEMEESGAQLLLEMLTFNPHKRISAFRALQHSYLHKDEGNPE
Chain of CDK4/Cyclin D1 (P24385 whole entry partner): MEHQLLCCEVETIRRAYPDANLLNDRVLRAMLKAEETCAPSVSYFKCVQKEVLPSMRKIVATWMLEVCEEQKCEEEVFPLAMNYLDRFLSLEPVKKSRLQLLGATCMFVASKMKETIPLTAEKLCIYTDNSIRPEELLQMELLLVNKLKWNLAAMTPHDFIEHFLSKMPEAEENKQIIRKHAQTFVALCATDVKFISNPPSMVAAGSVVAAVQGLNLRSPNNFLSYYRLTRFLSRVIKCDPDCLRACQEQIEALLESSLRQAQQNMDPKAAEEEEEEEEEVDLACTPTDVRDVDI
Chain of CDK17/Cyclin Y (Q00537 whole entry): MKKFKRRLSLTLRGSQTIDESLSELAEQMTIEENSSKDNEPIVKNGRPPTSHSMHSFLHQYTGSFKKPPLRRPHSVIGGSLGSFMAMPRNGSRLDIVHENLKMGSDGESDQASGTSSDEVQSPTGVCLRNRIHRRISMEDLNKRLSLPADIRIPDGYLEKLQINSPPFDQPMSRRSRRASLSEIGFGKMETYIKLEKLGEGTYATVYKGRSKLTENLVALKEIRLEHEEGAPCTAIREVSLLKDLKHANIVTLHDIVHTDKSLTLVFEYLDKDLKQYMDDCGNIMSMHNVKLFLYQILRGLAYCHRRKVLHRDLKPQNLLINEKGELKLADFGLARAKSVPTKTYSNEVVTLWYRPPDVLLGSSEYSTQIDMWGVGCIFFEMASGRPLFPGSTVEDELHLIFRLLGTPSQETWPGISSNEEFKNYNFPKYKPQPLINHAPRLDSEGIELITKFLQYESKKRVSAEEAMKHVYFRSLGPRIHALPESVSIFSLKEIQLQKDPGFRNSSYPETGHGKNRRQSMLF
Chain of CDK17/Cyclin Y (Q8ND76 whole entry partner): as the sequence (Q8ND76 whole entry partner) above
Chain of CDK10/Cyclin L2 (Q15131 whole entry): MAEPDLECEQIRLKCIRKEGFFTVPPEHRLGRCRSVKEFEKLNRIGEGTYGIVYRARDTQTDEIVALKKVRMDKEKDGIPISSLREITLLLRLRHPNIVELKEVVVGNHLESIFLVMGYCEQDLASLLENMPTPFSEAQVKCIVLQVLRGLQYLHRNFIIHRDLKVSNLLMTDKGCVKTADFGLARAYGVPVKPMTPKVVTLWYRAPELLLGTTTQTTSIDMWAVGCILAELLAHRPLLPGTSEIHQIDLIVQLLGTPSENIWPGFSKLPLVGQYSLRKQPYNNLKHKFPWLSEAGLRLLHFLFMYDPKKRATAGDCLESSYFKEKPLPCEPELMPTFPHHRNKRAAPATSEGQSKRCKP
Chain of CDK7 (P50613 whole entry): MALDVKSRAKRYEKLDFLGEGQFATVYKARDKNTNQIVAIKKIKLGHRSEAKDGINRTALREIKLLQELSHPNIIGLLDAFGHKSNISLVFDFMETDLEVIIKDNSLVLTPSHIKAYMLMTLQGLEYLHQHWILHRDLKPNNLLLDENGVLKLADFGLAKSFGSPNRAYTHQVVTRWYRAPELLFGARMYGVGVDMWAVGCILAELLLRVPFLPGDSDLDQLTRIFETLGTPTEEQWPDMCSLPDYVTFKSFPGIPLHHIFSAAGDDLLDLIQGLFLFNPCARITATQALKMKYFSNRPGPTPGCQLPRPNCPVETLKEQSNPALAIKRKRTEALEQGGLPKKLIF

Molecule `COc1ccccc1-c1cc(Nc2cccc(CS(N)(=O)=O)c2)ncn1` [LDC000067] has an inhibition at 10 µM (CDK18/Cyclin Y; average) of 8.7%, an inhibition at 10 µM (CDK18/Cyclin Y; experiment 1) of 5.1% and an inhibition at 10 µM (CDK18/Cyclin Y; experiment 2) of 12.3%. It also gave an inhibition at 10 µM (CDK5/CDK5R1; average) of 11.4%, an inhibition at 10 µM (CDK5/CDK5R1; experiment 1) of 17.5% and an inhibition at 10 µM (CDK5/CDK5R1; experiment 2) of 5.3%. For the same molecule, the inhibition at 10 µM (CDK17/Cyclin Y; average) was 19%, the inhibition at 10 µM (CDK17/Cyclin Y; experiment 1) was 20.7% and the inhibition at 10 µM (CDK17/Cyclin Y; experiment 2) was 17.3%. For the same molecule, the inhibition at 10 µM (CDK2/Cyclin E1; average) was 18.7%, the inhibition at 10 µM (CDK2/Cyclin E1; experiment 1) was 15.1% and the inhibition at 10 µM (CDK2/Cyclin E1; experiment 2) was 22.2%. The inhibition at 10 µM (CDK14/Cyclin Y; average) was -2.3%, the inhibition at 10 µM (CDK14/Cyclin Y; experiment 1) was -0.216% and the inhibition at 10 µM (CDK14/Cyclin Y; experiment 2) was -4.4%. The inhibition at 10 µM (CDK13/Cyclin K; average) was 10.2%, the inhibition at 10 µM (CDK13/Cyclin K; experiment 1) was 7.7% and the inhibition at 10 µM (CDK13/Cyclin K; experiment 2) was 12.8%. The inhibition at 10 µM (CDK3/Cyclin E1; average) was 27.7%, the inhibition at 10 µM (CDK3/Cyclin E1; experiment 1) was 23.7% and the inhibition at 10 µM (CDK3/Cyclin E1; experiment 2) was 31.7%. The inhibition at 10 µM (CDK12/Cyclin K; average) was 22.1%, the inhibition at 10 µM (CDK12/Cyclin K; experiment 1) was 7% and the inhibition at 10 µM (CDK12/Cyclin K; experiment 2) was 37.2%. For the same molecule, the inhibition at 10 µM (CDK8/Cyclin C; average) was 5.3%, the inhibition at 10 µM (CDK8/Cyclin C; experiment 1) was 5.1% and the inhibition at 10 µM (CDK8/Cyclin C; experiment 2) was 5.6%. For the same molecule, the inhibition at 10 µM (CDK15/Cyclin Y; average) was -1%, the inhibition at 10 µM (CDK15/Cyclin Y; experiment 1) was 3% and the inhibition at 10 µM (CDK15/Cyclin Y; experiment 2) was -5%. The inhibition at 10 µM (CDK16/Cyclin Y; experiment 1) was 17%, the inhibition at 10 µM (CDK16/Cyclin Y; experiment 2) was 12.6% and the inhibition at 10 µM (CDK1/Cyclin E1; average) was 31.6%. The inhibition at 10 µM (CDK1/Cyclin E1; experiment 1) was 30.7%, the inhibition at 10 µM (CDK1/Cyclin E1; experiment 2) was 32.5% and the inhibition at 10 µM (CDK6/Cyclin D1; average) was 38.7%. For the same molecule, the inhibition at 10 µM (CDK6/Cyclin D1; experiment 1) was 31.9%, the inhibition at 10 µM (CDK6/Cyclin D1; experiment 2) was 45.4% and the inhibition at 10 µM (CDK20/Cyclin H; experiment 1) was 11.2%. It also gave an inhibition at 10 µM (CDK20/Cyclin H; experiment 2) of 17.8%, an inhibition at 10 µM (CDK19/Cyclin C; average) of 11.4% and an inhibition at 10 µM (CDK19/Cyclin C; experiment 1) of 16.6%. The inhibition at 10 µM (CDK19/Cyclin C; experiment 2) was 6.1%, the inhibition at 10 µM (CDK4/Cyclin D1; average) was 44% and the inhibition at 10 µM (CDK4/Cyclin D1; experiment 1) was 41.2%. The inhibition at 10 µM (CDK4/Cyclin D1; experiment 2) was 46.7%, the inhibition at 10 µM (CDK10/Cyclin L2; average) was 6.6% and the inhibition at 10 µM (CDK10/Cyclin L2; experiment 1) was 10.2%. The inhibition at 10 µM (CDK10/Cyclin L2; experiment 2) was 3.1%, the inhibition at 10 µM (CDK7; average) was -9.3% and the inhibition at 10 µM (CDK7; experiment 1) was -12.1%. For the same molecule, the inhibition at 10 µM (CDK7; experiment 2) was -6.5%, the inhibition at 10 µM (CDK9/Cyclin K; average) was 88.8% and the inhibition at 10 µM (CDK9/Cyclin K; experiment 1) was 87.2%. It also gave an inhibition at 10 µM (CDK9/Cyclin K; experiment 2) of 90.3%, an inhibition at 10 µM (CDK11B/Cyclin L2; average) of 10.2% and an inhibition at 10 µM (CDK11B/Cyclin L2; experiment 1) of 9.7%. The inhibition at 10 µM (CDK11B/Cyclin L2; experiment 2) was 10.7%.
